Laboratory results from publication PMC9954146, “Anti-Leukaemic Activity of Rilpivirine Is Mediated by Aurora A Kinase Inhibition” (Cancers, 2023).

What was measured:
Assay in all cases: Kinase panel
Assay type in all cases: biochemical
Conditions in all cases: read-out: % Residual Activity
LKB1(h) = molecular target: T1, LKB1(h) (Homo sapiens, UniProt Q15831)
T1 construct: purchased Eurofins (KinaseProfiler)
In short: (§1)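 For each panel kinase, rilpivirine inhibition is measured by radioactive phosphate transfer with ATP at that enzyme's Km, […].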

DDR2(h) = molecular target: T2, DDR2(h) (Homo sapiens, UniProt Q16832)
T2 construct: purchased Eurofins (KinaseProfiler)
T2 sequence (Q16832 22-855): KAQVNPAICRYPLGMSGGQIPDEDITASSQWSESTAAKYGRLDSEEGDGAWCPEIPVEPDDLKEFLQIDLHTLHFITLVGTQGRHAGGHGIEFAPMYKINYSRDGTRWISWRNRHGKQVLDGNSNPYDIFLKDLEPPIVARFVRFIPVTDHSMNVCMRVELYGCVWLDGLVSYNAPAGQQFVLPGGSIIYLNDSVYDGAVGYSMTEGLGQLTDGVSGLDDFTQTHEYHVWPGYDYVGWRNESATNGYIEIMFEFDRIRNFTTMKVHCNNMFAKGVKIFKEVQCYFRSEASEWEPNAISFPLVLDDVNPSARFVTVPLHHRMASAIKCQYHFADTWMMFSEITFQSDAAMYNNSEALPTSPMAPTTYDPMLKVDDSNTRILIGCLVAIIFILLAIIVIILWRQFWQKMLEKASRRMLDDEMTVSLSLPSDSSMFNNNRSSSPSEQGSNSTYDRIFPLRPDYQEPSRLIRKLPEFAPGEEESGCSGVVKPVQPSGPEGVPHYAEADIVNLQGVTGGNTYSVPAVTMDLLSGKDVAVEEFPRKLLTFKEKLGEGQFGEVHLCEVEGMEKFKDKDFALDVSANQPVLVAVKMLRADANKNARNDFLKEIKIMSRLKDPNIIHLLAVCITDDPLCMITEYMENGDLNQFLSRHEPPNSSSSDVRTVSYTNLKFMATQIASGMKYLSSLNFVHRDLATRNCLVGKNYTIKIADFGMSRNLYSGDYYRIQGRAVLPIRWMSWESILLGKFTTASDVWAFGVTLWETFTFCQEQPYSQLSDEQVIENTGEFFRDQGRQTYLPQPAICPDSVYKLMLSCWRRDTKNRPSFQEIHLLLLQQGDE
In short: as §1

CDK3/cyclinE(h) = molecular target: T3, CDK3/cyclinE(h) (Homo sapiens, UniProt Q00526)
T3 construct: purchased Eurofins (KinaseProfiler)
In short: as §1

PRK2(h) = molecular target: T4, PRK2(h) (Homo sapiens, UniProt Q16513)
T4 construct: purchased Eurofins (KinaseProfiler)
In short: as §1

PDGFRα(D842V)(h) = molecular target: T5, PDGFRα(D842V)(h) (Homo sapiens, UniProt P16234, D842V)
T5 construct: purchased Eurofins (KinaseProfiler)
In short: as §1

NEK9(h) = molecular target: T6, NEK9(h) (Homo sapiens, UniProt Q8TD19)
T6 construct: purchased Eurofins (KinaseProfiler)
In short: as §1

CDK16/cyclinY(h) = molecular target: T7, CDK16/cyclinY(h) (Homo sapiens, UniProt Q00536)
T7 construct: purchased Eurofins (KinaseProfiler)
In short: as §1

Src(T341M)(h) = molecular target: T8, Src(T341M)(h) (Homo sapiens, UniProt P12931, T341M)
T8 construct: purchased Eurofins (KinaseProfiler)
In short: as §1

PDK1(h) = molecular target: T9, PDK1(h) (Homo sapiens, UniProt O15530)
T9 construct: purchased Eurofins (KinaseProfiler)
In short: as §1

MSSK1(h) = molecular target: T10, MSSK1(h) (Homo sapiens, UniProt Q9UPE1)
T10 construct: purchased Eurofins (KinaseProfiler)
T10 sequence (Q9UPE1 whole entry): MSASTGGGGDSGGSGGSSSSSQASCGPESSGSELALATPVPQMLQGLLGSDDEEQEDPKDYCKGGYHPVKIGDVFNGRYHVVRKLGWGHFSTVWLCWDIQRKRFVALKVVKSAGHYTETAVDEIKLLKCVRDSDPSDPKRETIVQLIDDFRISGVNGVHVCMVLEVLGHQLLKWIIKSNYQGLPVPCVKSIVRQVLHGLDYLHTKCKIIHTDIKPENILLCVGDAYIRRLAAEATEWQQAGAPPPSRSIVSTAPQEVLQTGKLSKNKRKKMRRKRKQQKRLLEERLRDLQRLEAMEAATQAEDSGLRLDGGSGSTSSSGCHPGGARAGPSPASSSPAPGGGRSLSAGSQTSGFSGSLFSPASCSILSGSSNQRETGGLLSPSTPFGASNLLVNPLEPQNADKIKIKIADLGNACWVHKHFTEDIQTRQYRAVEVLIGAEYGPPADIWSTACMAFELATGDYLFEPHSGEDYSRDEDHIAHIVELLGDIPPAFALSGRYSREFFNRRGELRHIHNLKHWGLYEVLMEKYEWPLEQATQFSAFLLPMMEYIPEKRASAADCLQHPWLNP
In short: as §1

Pim-2(h) = molecular target: T11, Pim-2(h) (Homo sapiens, UniProt Q9P1W9)
T11 construct: purchased Eurofins (KinaseProfiler)
In short: as §1

EphA3(h) = molecular target: T12, EphA3(h) (Homo sapiens, UniProt P29320)
T12 construct: purchased Eurofins (KinaseProfiler)
In short: as §1

Ros(h) = molecular target: T13, Ros(h) (Homo sapiens, UniProt P08922)
T13 construct: purchased Eurofins (KinaseProfiler)
In short: as §1

ROCK-I(h) = molecular target: T14, ROCK-I(h) (Homo sapiens, UniProt Q13464)
T14 construct: purchased Eurofins (KinaseProfiler)
In short: as §1

ALK(h) = molecular target: T15, ALK(h) (Homo sapiens, UniProt Q9UM73)
T15 construct: purchased Eurofins (KinaseProfiler)
In short: as §1

TAF1L(h) = molecular target: T16, TAF1L(h) (Homo sapiens, UniProt Q8IZX4)
T16 construct: purchased Eurofins (KinaseProfiler)
In short: as §1

CaMKIIδ(h) = molecular target: T17, CaMKIIδ(h) (Homo sapiens, UniProt Q13557)
T17 construct: purchased Eurofins (KinaseProfiler)
In short: as §1

IGF-1R(h) = molecular target: T18, IGF-1R(h) (Homo sapiens, UniProt P08069)
T18 construct: purchased Eurofins (KinaseProfiler)
T18 sequence (P08069 31-1367): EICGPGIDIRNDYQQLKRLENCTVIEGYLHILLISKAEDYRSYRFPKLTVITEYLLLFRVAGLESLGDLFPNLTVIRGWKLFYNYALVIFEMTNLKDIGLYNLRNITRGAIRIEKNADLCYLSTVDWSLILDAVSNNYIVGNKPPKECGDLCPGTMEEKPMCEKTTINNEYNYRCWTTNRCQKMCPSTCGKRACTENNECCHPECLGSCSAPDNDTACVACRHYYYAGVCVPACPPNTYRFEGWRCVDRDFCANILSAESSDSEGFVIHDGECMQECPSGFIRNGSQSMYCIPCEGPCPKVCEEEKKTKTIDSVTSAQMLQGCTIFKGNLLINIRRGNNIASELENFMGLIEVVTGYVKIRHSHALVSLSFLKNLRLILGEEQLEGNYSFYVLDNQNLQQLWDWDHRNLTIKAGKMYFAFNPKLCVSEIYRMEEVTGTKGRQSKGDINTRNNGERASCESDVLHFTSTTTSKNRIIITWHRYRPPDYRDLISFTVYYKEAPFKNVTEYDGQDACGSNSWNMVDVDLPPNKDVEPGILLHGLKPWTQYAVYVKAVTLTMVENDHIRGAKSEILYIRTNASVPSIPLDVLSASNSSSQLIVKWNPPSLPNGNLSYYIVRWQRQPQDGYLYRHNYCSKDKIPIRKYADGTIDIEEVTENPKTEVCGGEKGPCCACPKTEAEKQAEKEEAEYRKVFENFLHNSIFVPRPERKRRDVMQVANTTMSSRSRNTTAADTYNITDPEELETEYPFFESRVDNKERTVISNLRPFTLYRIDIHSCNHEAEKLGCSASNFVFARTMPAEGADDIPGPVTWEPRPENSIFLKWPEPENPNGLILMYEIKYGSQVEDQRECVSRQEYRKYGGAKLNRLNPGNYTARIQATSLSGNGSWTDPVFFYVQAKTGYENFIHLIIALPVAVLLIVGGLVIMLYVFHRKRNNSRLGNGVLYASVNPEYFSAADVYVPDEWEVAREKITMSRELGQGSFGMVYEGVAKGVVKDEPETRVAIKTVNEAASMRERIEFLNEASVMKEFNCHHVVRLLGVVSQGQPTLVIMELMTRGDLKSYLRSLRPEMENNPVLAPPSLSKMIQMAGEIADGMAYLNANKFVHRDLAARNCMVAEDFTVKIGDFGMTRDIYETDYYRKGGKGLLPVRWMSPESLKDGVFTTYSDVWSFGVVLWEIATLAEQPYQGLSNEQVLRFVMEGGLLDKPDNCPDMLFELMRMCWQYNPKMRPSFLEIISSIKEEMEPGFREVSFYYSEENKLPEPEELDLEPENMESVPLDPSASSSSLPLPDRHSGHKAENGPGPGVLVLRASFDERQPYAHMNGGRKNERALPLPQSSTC
In short: as §1

NEK11(h) = molecular target: T19, NEK11(h) (Homo sapiens, UniProt Q8NG66)
T19 construct: purchased Eurofins (KinaseProfiler)
T19 sequence (Q8NG66 whole entry): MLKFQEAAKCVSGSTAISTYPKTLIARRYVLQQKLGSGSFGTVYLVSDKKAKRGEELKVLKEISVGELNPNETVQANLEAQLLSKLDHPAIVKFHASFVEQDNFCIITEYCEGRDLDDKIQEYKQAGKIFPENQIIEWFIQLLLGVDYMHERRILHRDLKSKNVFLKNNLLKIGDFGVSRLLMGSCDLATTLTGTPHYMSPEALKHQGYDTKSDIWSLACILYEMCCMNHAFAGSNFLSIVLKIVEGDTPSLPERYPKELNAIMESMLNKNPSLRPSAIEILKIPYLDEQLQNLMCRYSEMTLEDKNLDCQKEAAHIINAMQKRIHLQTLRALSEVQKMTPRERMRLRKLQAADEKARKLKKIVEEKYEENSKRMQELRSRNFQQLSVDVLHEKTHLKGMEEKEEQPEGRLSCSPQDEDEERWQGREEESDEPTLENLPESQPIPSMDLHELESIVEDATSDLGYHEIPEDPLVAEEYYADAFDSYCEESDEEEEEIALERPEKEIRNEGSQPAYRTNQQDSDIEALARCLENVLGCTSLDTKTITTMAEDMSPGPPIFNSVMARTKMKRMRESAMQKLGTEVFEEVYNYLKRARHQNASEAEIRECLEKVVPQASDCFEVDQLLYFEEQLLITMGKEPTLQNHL
In short: as §1

ALK2(h) = molecular target: T20, ALK2(h) (Homo sapiens, UniProt Q04771)
T20 construct: purchased Eurofins (KinaseProfiler)
In short: as §1

Flt1(h) = molecular target: T21, Flt1(h) (Homo sapiens, UniProt P17948)
T21 construct: purchased Eurofins (KinaseProfiler)
In short: as §1

SRPK1(h) = molecular target: T22, SRPK1(h) (Homo sapiens, UniProt Q96SB4)
T22 construct: purchased Eurofins (KinaseProfiler)
T22 sequence (Q96SB4 whole entry): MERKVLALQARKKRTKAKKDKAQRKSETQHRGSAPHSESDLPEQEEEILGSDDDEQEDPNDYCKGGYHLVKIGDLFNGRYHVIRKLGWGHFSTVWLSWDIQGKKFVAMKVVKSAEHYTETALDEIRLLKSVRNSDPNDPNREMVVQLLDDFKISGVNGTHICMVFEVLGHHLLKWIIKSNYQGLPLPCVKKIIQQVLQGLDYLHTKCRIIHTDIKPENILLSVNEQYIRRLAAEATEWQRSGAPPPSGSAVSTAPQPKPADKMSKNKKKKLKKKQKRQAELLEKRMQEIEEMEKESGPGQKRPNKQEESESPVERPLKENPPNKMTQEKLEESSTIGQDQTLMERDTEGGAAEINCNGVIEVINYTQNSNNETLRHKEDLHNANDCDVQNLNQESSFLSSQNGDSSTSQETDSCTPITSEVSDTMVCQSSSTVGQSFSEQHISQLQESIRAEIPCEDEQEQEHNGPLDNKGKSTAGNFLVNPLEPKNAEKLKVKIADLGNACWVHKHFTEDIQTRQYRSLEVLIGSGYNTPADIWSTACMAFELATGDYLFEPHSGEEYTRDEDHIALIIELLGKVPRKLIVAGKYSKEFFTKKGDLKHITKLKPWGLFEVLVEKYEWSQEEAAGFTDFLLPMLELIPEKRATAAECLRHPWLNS
In short: as §1

MEKK3(h) = molecular target: T23, MEKK3(h) (Homo sapiens, UniProt Q99759)
T23 construct: purchased Eurofins (KinaseProfiler)
T23 sequence (Q99759 whole entry): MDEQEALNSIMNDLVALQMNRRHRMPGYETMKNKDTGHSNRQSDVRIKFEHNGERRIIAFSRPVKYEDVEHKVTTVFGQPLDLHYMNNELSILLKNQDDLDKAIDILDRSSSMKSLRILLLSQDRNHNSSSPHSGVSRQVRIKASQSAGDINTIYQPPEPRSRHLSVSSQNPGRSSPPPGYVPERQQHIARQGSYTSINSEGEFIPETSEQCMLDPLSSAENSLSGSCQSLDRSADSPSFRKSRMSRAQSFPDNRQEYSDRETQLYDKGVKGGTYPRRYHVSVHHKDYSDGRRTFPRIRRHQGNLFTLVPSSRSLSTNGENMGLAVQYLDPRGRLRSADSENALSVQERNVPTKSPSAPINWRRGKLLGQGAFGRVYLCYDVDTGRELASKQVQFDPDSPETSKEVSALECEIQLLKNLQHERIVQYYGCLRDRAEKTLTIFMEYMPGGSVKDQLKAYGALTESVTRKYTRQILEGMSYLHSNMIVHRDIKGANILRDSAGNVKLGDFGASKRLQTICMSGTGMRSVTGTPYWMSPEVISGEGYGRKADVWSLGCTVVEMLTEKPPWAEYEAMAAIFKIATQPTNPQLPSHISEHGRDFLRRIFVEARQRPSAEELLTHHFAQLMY
In short: as §1

DNA-PK(h) = molecular target: T24, DNA-PK(h) (Homo sapiens, UniProt P78527)
T24 construct: purchased Eurofins (KinaseProfiler)
In short: as §1

MKK3(h) = molecular target: T25, MKK3(h) (Homo sapiens, UniProt P46734)
T25 construct: purchased Eurofins (KinaseProfiler)
In short: as §1

CK1α(h) = molecular target: T26, CK1α(h) (Homo sapiens, UniProt P48729)
T26 construct: purchased Eurofins (KinaseProfiler)
In short: as §1

MYO3B(h) = molecular target: T27, MYO3B(h) (Homo sapiens, UniProt Q8WXR4)
T27 construct: purchased Eurofins (KinaseProfiler)
In short: as §1

WNK4(h) = molecular target: T28, WNK4(h) (Homo sapiens, UniProt Q96J92)
T28 construct: purchased Eurofins (KinaseProfiler)
In short: as §1

ASK1(h) = molecular target: T29, ASK1(h) (Homo sapiens, UniProt Q99683)
T29 construct: purchased Eurofins (KinaseProfiler)
In short: as §1

HPK1(h) = molecular target: T30, HPK1(h) (Homo sapiens, UniProt Q92918)
T30 construct: purchased Eurofins (KinaseProfiler)
In short: as §1

PKCα(h) = molecular target: T31, PKCα(h) (Homo sapiens, UniProt P17252)
T31 construct: purchased Eurofins (KinaseProfiler)
In short: as §1

HRI(h) = molecular target: T32, HRI(h) (Homo sapiens, UniProt Q9BQI3)
T32 construct: purchased Eurofins (KinaseProfiler)
In short: as §1

CDK9/cyclin T1(h) = molecular target: T33, CDK9/cyclin T1(h) (Homo sapiens, UniProt P50750)
T33 construct: purchased Eurofins (KinaseProfiler)
In short: as §1

NIM1(h) = molecular target: T34, NIM1(h) (Homo sapiens, UniProt Q8IY84)
T34 construct: purchased Eurofins (KinaseProfiler)
In short: as §1

ALK1(h) = molecular target: T35, ALK1(h) (Homo sapiens, UniProt P37023)
T35 construct: purchased Eurofins (KinaseProfiler)
In short: as §1

B-Raf(V599E)(h) = molecular target: T36, B-Raf(V599E)(h) (Homo sapiens, UniProt P15056, V600E)
T36 construct: purchased Eurofins (KinaseProfiler)
T36 sequence (P15056 417-766 V600E limits assumed): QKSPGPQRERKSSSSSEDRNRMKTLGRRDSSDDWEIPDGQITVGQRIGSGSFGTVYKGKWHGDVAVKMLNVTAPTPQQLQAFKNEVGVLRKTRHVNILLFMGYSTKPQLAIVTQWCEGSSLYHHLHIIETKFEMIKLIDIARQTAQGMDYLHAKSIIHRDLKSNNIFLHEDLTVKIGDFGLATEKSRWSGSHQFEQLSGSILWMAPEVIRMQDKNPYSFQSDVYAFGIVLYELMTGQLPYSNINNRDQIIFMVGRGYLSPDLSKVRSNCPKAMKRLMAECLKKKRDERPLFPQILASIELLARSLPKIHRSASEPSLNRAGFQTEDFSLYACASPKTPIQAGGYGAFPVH
In short: as §1

BTK(R28H)(h) = molecular target: T37, BTK(R28H)(h) (Homo sapiens, UniProt Q06187, R28H)
T37 construct: purchased Eurofins (KinaseProfiler)
In short: as §1

PI3KC2a(h) = PI3KC2a(h) (Homo sapiens, UniProt O00443)
In short: as §1

CaMKIIα(h) = molecular target: T38, CaMKIIα(h) (Homo sapiens, UniProt Q9UQM7)
T38 construct: purchased Eurofins (KinaseProfiler)
In short: as §1

Cc1cc(/C=C/C#N)cc(C)c1Nc1ccnc(Nc2ccc(C#N)cc2)n1 [rilpivirine, (E)-4-((4-((4-(2-cyanoethenyl)-2,6-dimethylphenyl)amino)pyrimidin-2-yl)amino)benzonitrile]
remaining activity at 1 µM (LKB1(h)): 87%
remaining activity at 1 µM (DDR2(h)): 82%
remaining activity at 1 µM (CDK3/cyclinE(h)): 90%
remaining activity at 1 µM (PRK2(h)): 74%
remaining activity at 1 µM (PDGFRα(D842V)(h)): 79%
remaining activity at 1 µM (NEK9(h)): 90%
remaining activity at 1 µM (CDK16/cyclinY(h)): 96%
remaining activity at 1 µM (Src(T341M)(h)): 78%
remaining activity at 1 µM (PDK1(h)): 85%
remaining activity at 1 µM (MSSK1(h)): 84%
remaining activity at 1 µM (Pim-2(h)): 56%
remaining activity at 1 µM (EphA3(h)): 86%
remaining activity at 1 µM (Ros(h)): 77%
remaining activity at 1 µM (ROCK-I(h)): 95%
remaining activity at 1 µM (ALK(h)): 80%
remaining activity at 1 µM (TAF1L(h)): 55%
remaining activity at 1 µM (CaMKIIδ(h)): 47%
remaining activity at 1 µM (IGF-1R(h)): 89%
remaining activity at 1 µM (NEK11(h)): 92%
remaining activity at 1 µM (ALK2(h)): 91%
remaining activity at 1 µM (Flt1(h)): 100%
remaining activity at 1 µM (SRPK1(h)): 84%
remaining activity at 1 µM (MEKK3(h)): 72%
remaining activity at 1 µM (DNA-PK(h)): 95%
remaining activity at 1 µM (MKK3(h)): 111%
remaining activity at 1 µM (CK1α(h)): 103%
remaining activity at 1 µM (MYO3B(h)): 96%
remaining activity at 1 µM (WNK4(h)): 113%
remaining activity at 1 µM (ASK1(h)): 92%
remaining activity at 1 µM (HPK1(h)): 62%
remaining activity at 1 µM (PKCα(h)): 83%
remaining activity at 1 µM (HRI(h)): 91%
remaining activity at 1 µM (CDK9/cyclin T1(h)): 81%
remaining activity at 1 µM (NIM1(h)): 88%
remaining activity at 1 µM (ALK1(h)): 84%
remaining activity at 1 µM (B-Raf(V599E)(h)): 95%
remaining activity at 1 µM (BTK(R28H)(h)): 97%
remaining activity at 1 µM (PI3KC2a(h)): 94%
remaining activity at 1 µM (CaMKIIα(h)): 61%
